From patent US5254677A, “β-galactosidase substrates for cedia” (Boehringer Mannheim GmbH, priority 1990, dated 1993)

Legend:
[1] = Absorption maxima of the chromogen and associated extinction coefficients; format: physicochemical; conditions: 0.1 mole/l. potassium phosphate buffer (pH 7.0); for ε (extinction coefficient): at the absorption maximum of the chromogen
Source text: 1. Wavelengths of the absorption maxima of the chromogen and the associated extinction coefficients (ε).
Measurement in 0.1 mole/l. potassium phosphate buffer (pH 7.0) at the absorption maximum of the chromogen.

β-galactosidase = target: T1, β-galactosidase (Escherichia coli, UniProt P00722); assay: Enzyme activity: extinction change per minute with identical amounts of β-galactosidase (sensitivity and enzymatic cleavage rate of substrates); format: biochemical; conditions: measured at the absorption maximum of the particular chromogen (405/376/384/408 nm), 0.05M potassium phosphate buffer pH 7.0
T1 construct: not the CEDIA donor/acceptor fragments
T1 sequence (P00722 2-1024): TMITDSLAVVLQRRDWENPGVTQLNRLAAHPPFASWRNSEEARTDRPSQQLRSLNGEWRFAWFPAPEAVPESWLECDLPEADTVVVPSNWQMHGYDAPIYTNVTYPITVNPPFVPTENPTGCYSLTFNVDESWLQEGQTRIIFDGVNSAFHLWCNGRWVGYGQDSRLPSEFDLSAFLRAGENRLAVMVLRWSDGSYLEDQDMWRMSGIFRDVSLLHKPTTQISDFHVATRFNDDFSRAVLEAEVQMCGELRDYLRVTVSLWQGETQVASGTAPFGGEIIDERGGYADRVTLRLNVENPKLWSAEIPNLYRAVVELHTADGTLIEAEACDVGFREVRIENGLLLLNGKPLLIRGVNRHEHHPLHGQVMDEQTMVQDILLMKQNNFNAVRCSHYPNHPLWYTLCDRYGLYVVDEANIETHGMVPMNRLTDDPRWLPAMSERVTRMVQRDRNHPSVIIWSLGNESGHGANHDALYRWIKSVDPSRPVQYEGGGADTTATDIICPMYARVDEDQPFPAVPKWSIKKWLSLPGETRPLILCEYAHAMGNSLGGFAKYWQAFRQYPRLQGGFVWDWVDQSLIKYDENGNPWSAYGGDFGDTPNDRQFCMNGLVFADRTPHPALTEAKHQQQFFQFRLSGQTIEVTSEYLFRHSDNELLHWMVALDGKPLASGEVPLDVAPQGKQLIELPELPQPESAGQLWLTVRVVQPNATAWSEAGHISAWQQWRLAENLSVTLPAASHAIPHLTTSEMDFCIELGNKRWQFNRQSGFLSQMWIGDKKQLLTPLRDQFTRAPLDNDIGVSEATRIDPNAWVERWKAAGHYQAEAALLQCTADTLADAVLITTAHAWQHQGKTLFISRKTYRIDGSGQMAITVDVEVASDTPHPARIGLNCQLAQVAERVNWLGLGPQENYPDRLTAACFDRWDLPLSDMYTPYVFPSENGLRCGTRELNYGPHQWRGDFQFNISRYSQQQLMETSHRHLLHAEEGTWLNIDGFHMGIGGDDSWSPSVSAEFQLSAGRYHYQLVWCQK
Experimental: 2. Sensitivity comparison of the substrates and of their enzymatic cleavage rate.
The extinction change per minute (mE/min.) in the region of the absorption maximum (see Table 1) of the particular chromogen was determined with the use of identical amounts of the enzyme β-galactosidase: for the precise conditions see Example 4, II a) and b).
1) 0.05M potassium phosphate buffer, pH 7.0
2) 10 mmole/liter magnesium chloride solution
3) 69.8% (v/v) mercaptoethanol solution
4) p-galactosidase (Boehringer Mannheim GmbH, order No. 105 031)
5) substrate, 5.9 mg./ml. in solution a)
Pre-incubation: the following substances were pipetted into plastic cuvettes: […]
After mixing, the reaction was initiated: […]
Δ/min. was calculated from the linear range.

[2] = system: β-galactosidase formed from EA22 enzyme acceptor and ED4-thyroxine T4 conjugate; assay: T4/CEDIA test (thyroxine T4 as hapten, monoclonal antibodies against T4), gradient of the calibration curve; format: biochemical; conditions: Hitachi 704, 37° C., substrate 1 mg./ml., 376 or 415 nm, percentage of 2-nitrophenyl-β-galactoside (=100%)
Experimental: 3. Evaluation in the T4/CEDIA (CEDIA with thyroxine T4 as hapten and monoclonal antibodies against thyroxine T4).
The criterion for the evaluation of the individual substrates was the gradient of the calibration curve.
I) Carrying out of the T4/CEDIA test
Definitions: EA=enzyme acceptor; ED=enzyme donor; EA22 =cloned enzyme acceptor for CEDIA; ED4 =cloned enzyme donor for CEDIA. […] The amino acid sequences of these polypeptides are there disclosed.
ΔE/min. was measured in the interval of 9-10 minutes.
Calibration curves were produced for all substrates. Of these curves, the gradients were compared. [formula]
Gradient expressed as percentage value of the 2-nitrophenyl-β-galactoside (=100%) for T4/CEDIA.

[3] = system: β-galactosidase formed from EA22 enzyme acceptor and ED4-thyroxine T4 conjugate; conditions: prior art substrate of U.S. Pat. No. 4,708,929; cited from earlier work

| Compound | lambda max [1] | ε (extinction coefficient) [1] | extinction change per minute (β-galactosidase) | relative gradient of the calibration curve [2] | sensitivity as chromogenic enzyme substrate for CEDIA [3] |
| --- | --- | --- | --- | --- | --- |
| O=[N+]([O-])c1ccc(O)c(C(F)(F)F)c1 [2-CF3-4-nitrophenol, 2-Trifluoromethyl-4-nitrophenol] | 384 nm | 18800 L/mol/cm |  |  |  |
| N#Cc1cc([N+](=O)[O-])ccc1O [2-CN-4-nitrophenol, 2-Hydroxy-5-nitrobenzonitrile] | 376 nm | 15700 L/mol/cm |  |  |  |
| O=[N+]([O-])c1ccc(O)c(Cl)c1 [2-Cl-4-nitrophenol] | 405 nm | 16600 L/mol/cm |  |  |  |
| O=[N+]([O-])c1ccccc1O [2-nitrophenol] | 408 nm | 2040 L/mol/cm |  |  |  |
| O=[N+]([O-])c1ccc(O[C@@H]2O[C@H](CO)[C@H](O)[C@H](O)[C@H]2O)c(C(F)(F)F)c1 [Example 2-CF3-4-NPG, 2-trifluoromethyl-4-nitrophenyl-β-D-galactopyranoside] |  |  | 0.109 mE/min. | 528% |  |
| N#Cc1cc([N+](=O)[O-])ccc1O[C@@H]1O[C@H](CO)[C@H](O)[C@H](O)[C@H]1O [Example 2-CN-4-NPG, 2-cyano-4-nitrophenyl-β-D-galactopyranoside] |  |  | 0.150 mE/min. | 561% |  |
| O=[N+]([O-])c1ccc(O[C@@H]2O[C@H](CO)[C@H](O)[C@H](O)[C@H]2O)c(Cl)c1 [Example 2-Cl-4-NPG, 2-chloro-4-nitrophenyl-β-D-galactopyranoside, reference compound] |  |  | 0.085 mE/min. | 494% |  |
| O=[N+]([O-])c1ccccc1O[C@@H]1O[C@H](CO)[C@H](O)[C@H](O)[C@H]1O [oNPG, 2-nitrophenyl-β-D-galactopyranoside, reference compound] |  |  | 0.024 mE/min. | 100% | low sensitivity |
